# Test results taken from PMC8922279, “Identification of β-Lactams Active against Mycobacterium tuberculosis by a Consortium of Pharmaceutical Companies and Academic Institutions” (ACS Infectious Diseases, 2022).
# Columns and labels:
# [1] = In vitro plasma stability, cynomolgus monkey plasma; details: 2 μM, 37 °C, time point 120 min
# Mtb H37Rv [2] = experiment: MIC90 against replicating (R) Mtb H37Rv, with or without clavulanate; assay type: cell-based, Mycobacterium tuberculosis; details: Table S4; for Mtb H37Rv R + CLAV (MIC90): clavulanate 4 μg/mL; for Mtb H37Rv R (MIC90): no clavulanate
# S. aureus = experiment: Microbial spectrum, S. aureus; assay type: cell-based, Staphylococcus aureus; details: clavulanate 4 μg/mL; Table S4
# plasma proteins [3] = experiment: Plasma protein binding (equilibrium dialysis), beagle dog; details: 2 μM
# E. coli = experiment: Microbial spectrum, E. coli; assay type: cell-based, Escherichia coli; details: clavulanate 4 μg/mL; Table S4
# C. albicans = experiment: Microbial spectrum, C. albicans; assay type: cell-based, Candida albicans; details: no clavulanate; Table S4
# P. aeruginosa = experiment: Microbial spectrum, P. aeruginosa; assay type: cell-based, Pseudomonas aeruginosa; details: clavulanate 4 μg/mL; Table S4
# Mtb H37Rv [4] = experiment: MIC90 against nonreplicating (NR, 4-stress) Mtb H37Rv, with or without clavulanate; assay type: cell-based, Mycobacterium tuberculosis; details: 4-stress nonreplicating, Table S4; for Mtb H37Rv NR + CLAV (MIC90): clavulanate 4 μg/mL; for Mtb H37Rv NR (MIC90): no clavulanate
# [5] = In vitro plasma stability, beagle dog plasma; details: 2 μM, 37 °C, time point 120 min
# [6] = In vitro plasma stability, SD rat plasma; details: 2 μM, 37 °C, time point 120 min
# [7] = Stability in fasted simulated intestinal fluid (FaSSIF); details: 10 μM, pH 6.5, room temperature
# plasma proteins [8] = experiment: Plasma protein binding (equilibrium dialysis), SD rat; details: 2 μM
# [9] = Stability in simulated gastric fluid (SGF); details: 10 μM, pH 1.2, room temperature
# Caco-2 cells = experiment: Caco-2 permeability / efflux transporter substrate; details: for Caco-2 Mean Papp A to B / Caco-2 Mean Papp B to A: 3 μM, pH 7.4, 120 min; for Caco-2 Efflux Ratio / Caco-2 Mean Recovery % A to B / Caco-2 Mean Recovery % B to A / Caco-2 Rank Papp / Efflux Transporter Substrate: Caco-2
# plasma proteins [10] = experiment: Plasma protein binding (equilibrium dialysis), cynomolgus monkey; details: 2 μM
# [11] = Mouse PK in uninfected CD-1 mice (i.v. and p.o.)
# [12] = In vitro plasma stability, CD-1 mouse plasma; details: 2 μM, 37 °C, time point 120 min
# plasma proteins [13] = experiment: Plasma protein binding (equilibrium dialysis), human; details: 2 μM
# [14] = In vitro plasma stability, human plasma; details: 2 μM, 37 °C, time point 120 min
# plasma proteins [15] = experiment: Plasma protein binding (equilibrium dialysis), CD-1 mouse; details: 2 μM
Compound,"Plasma stability % Remaining, Monkey [1]",Mtb H37Rv R + CLAV (MIC90) (Mtb H37Rv [2]),Mtb H37Rv R (MIC90) (Mtb H37Rv [2]),S.aureus R + CLAV (MIC90) (S. aureus),"% bound to plasma, Beagle Dog (plasma proteins [3])",E.coli R + CLAV (MIC90) (E. coli),C.albicans R (MIC90) (C. albicans),P.aeruginosa R + CLAV (MIC90) (P. aeruginosa),Mtb H37Rv NR + CLAV (MIC90) (Mtb H37Rv [4]),Mtb H37Rv NR (MIC90) (Mtb H37Rv [4]),"Plasma stability % Remaining, Dog [5]","Plasma stability % Remaining, Rat [6]","FaSSIF Stability, % remaining, 6h [7]","FaSSIF Stability, % remaining, 24h [7]","% bound to plasma, SD Rat (plasma proteins [8])","SGF Stability, % remaining, 1h [9]","SGF Stability, % remaining, 24h [9]",Caco-2 Mean Papp A to B (Caco-2 cells),Caco-2 Mean Papp B to A (Caco-2 cells),Caco-2 Mean Recovery % A to B (Caco-2 cells),other results
CCc1nnc(SCC2=C(C(=O)O)N3C(=O)[C@@H](NC(=O)Cc4ccc(C5=NCCN5)cc4)[C@H]3SC2)s1 [TBBL-0000310],110.3%,0.5 µM,16.4 µM,0.9 µM,30.5%,49.9 µM,> 100 µM,> 100 µM,92.2 µM,90.4 µM,79.6%,80.0%,98.8%,95.07%,81.2%,86.27%,0.61%,0.46 10-6 cm/s,0.43 10-6 cm/s,99.13%,"Caco-2 Efflux Ratio (Caco-2 cells): 0.94; Caco-2 Mean Recovery % B to A (Caco-2 cells): 102.93%; Caco-2 Rank Papp (Caco-2 cells): Low; Efflux Transporter Substrate (Caco-2 cells): Poor or no; % bound to plasma, Cynomolgus Monkey (plasma proteins [10]): 56.2%; AUC[0-5h] ([11]; i.v. dosing (5 mg/kg)): 39113 ng·h/mL; Vd ([11]; i.v. dosing (5 mg/kg)): 0.09 L/kg; clearance ([11]; i.v. dosing (5 mg/kg)): 2.13 mL/min/kg; half-life ([11]; i.v. dosing (5 mg/kg)): 28.8 min; k el ([11]; i.v. dosing (5 mg/kg)): 1.45 h⁻¹; AUC[0-5h] ([11]; p.o. dosing (25 mg/kg)): 614 ng·h/mL; bioavailability ([11]; p.o. dosing (25 mg/kg)): 0.34%; Plasma stability % Remaining, Mouse [12]: 82.2%; % bound to plasma, Human (plasma proteins [13]): 60.7%; Plasma stability % Remaining, Human [14]: 78.9%; % bound to plasma, CD-1 Mouse (plasma proteins [15]): 49.9%"
CCCc1nnc(SCC2=C(C(=O)O)N3C(=O)[C@@H](NC(=O)Cc4ccc(C(=N)N)cc4)[C@H]3SC2)s1 [TBBL-0000314],103.9%,0.8 µM,14.1 µM,1.6 µM,46.7%,> 100 µM,> 100 µM,> 100 µM,> 100 µM,> 100 µM,77.0%,73.3%,101.85%,95.17%,84.6%,76.41%,1.85%,< 0.07 10-6 cm/s,< 0.06 10-6 cm/s,< 94.56%,"Caco-2 Mean Recovery % B to A (Caco-2 cells): < 107.68%; Caco-2 Rank Papp (Caco-2 cells): Low; % bound to plasma, Cynomolgus Monkey (plasma proteins [10]): 60.1%; Plasma stability % Remaining, Mouse [12]: 76.2%; % bound to plasma, Human (plasma proteins [13]): 65.7%; Plasma stability % Remaining, Human [14]: 77.2%; % bound to plasma, CD-1 Mouse (plasma proteins [15]): 67.9%"
CNCc1ccccc1CC(=O)N[C@@H]1C(=O)N2C(C(=O)O)=C(CSc3nnnn3C)CS[C@H]12 [TBBL-0000468],101.7%,5.4 µM,16.4 µM,8.7 µM,7.3%,> 100 µM,> 100 µM,> 100 µM,> 100 µM,> 100 µM,77.2%,80.8%,83.23%,56.36%,39.1%,101.42%,49.27%,< 0.25 10-6 cm/s,< 0.21 10-6 cm/s,< 102.74%,"Caco-2 Mean Recovery % B to A (Caco-2 cells): < 109.10%; Caco-2 Rank Papp (Caco-2 cells): Low; % bound to plasma, Cynomolgus Monkey (plasma proteins [10]): 21.9%; Plasma stability % Remaining, Mouse [12]: 72.0%; % bound to plasma, Human (plasma proteins [13]): 21.1%; Plasma stability % Remaining, Human [14]: 73.6%; % bound to plasma, CD-1 Mouse (plasma proteins [15]): 1.7%"
NCc1ccccc1CC(=O)N[C@@H]1C(=O)N2C(C(=O)O)=C(CSc3nnnn3CCO)CS[C@H]12 [TBBL-0000656],85.7%,2.1 µM,5.8 µM,> 100 µM,11.2%,9.8 µM,> 100 µM,> 100 µM,> 100 µM,> 100 µM,74.7%,85.1%,89.32%,70.9%,50.2%,87.12%,53.93%,< 0.12 10-6 cm/s,0.27 10-6 cm/s,< 102.47%,"Caco-2 Efflux Ratio (Caco-2 cells): > 2.26; Caco-2 Mean Recovery % B to A (Caco-2 cells): 106.09%; Caco-2 Rank Papp (Caco-2 cells): Low; Efflux Transporter Substrate (Caco-2 cells): Likely; % bound to plasma, Cynomolgus Monkey (plasma proteins [10]): 22.0%; Plasma stability % Remaining, Mouse [12]: 95.0%; % bound to plasma, Human (plasma proteins [13]): 23.3%; Plasma stability % Remaining, Human [14]: 75.1%; % bound to plasma, CD-1 Mouse (plasma proteins [15]): 23.0%"
